The target in assay [1] is IRAK4 (Homo sapiens (Human), UniProt Q9NWZ3). In words: IRAK4 Inhibition Assay. In kind it is biochemical. The settings on record: ATP 500 μM; IRAK4 0.6 nM; 60 min room temperature. As for the experimental part:
IRAK4 Inhibition Assay The assays were performed in U-bottom 384-well plates. […] The reaction was initiated by the combination of IRAK4 with substrates and test compounds. The reaction mixture was incubated at room temperature for 60 min. and terminated by adding 45 μL of 35 mM EDTA to each sample. The reaction mixture was analyzed on the Caliper LABCHIP® 3000 (Caliper, Hopkinton, MA) by electrophoretic separation of the fluorescent substrate and phosphorylated product. Inhibition data were calculated by comparison to no enzyme control reactions for 100% inhibition and vehicle-only reactions for 0% inhibition.

The target in assay [2] is JAK3 kinase (Homo sapiens (Human), UniProt P52333). In words: JAK3 Homogeneous Time Resolved Fluorescence (HTRF) Assay. In kind it is binding. The settings on record: for IC50: competition binding with fluorescein-labeled ATP competitive probe; for Ratio of JAK3 IC50 to IRAK4 IC50: selectivity for IRAK4 over JAK3. As for the experimental part:
JAK3 Homogeneous Time Resolved Fluorescence (HTRF) Assay
A time resolved FRET-based competition binding assay was used to assess test article binding to JAK3 kinase. His-tagged or GST-tagged kinase at a concentration of 1 nM was incubated with 0.2 nM Tb-labeled detection antibody (anti-His or anti-GST), test compound, and fluorescein-labeled ATP competitive probe at a concentration corresponding to the probe's equilibrium dissociation constant for one hour. Fluorescence at 495 nm and 520 nm was measured using an EnVision microplate reader to quantify FRET between Tb-labeled detection antibody and fluorescein-labeled probe. Background subtracted FRET ratios were normalized to the maximum signal obtained in the absence of test compound. These values were converted to a percent inhibition. Percent inhibition was determined for test compounds at 11 concentrations. The IC50, defined as the concentration of the competing test compound needed to reduce specific binding of the probe by 50%, was calculated using the 4 parameter logistic equation to fit the data.
In general terms: TR-FRET usually uses a lanthanide donor and a delayed reading to cut background.

Sequence of JAK3 kinase (P52333 whole entry): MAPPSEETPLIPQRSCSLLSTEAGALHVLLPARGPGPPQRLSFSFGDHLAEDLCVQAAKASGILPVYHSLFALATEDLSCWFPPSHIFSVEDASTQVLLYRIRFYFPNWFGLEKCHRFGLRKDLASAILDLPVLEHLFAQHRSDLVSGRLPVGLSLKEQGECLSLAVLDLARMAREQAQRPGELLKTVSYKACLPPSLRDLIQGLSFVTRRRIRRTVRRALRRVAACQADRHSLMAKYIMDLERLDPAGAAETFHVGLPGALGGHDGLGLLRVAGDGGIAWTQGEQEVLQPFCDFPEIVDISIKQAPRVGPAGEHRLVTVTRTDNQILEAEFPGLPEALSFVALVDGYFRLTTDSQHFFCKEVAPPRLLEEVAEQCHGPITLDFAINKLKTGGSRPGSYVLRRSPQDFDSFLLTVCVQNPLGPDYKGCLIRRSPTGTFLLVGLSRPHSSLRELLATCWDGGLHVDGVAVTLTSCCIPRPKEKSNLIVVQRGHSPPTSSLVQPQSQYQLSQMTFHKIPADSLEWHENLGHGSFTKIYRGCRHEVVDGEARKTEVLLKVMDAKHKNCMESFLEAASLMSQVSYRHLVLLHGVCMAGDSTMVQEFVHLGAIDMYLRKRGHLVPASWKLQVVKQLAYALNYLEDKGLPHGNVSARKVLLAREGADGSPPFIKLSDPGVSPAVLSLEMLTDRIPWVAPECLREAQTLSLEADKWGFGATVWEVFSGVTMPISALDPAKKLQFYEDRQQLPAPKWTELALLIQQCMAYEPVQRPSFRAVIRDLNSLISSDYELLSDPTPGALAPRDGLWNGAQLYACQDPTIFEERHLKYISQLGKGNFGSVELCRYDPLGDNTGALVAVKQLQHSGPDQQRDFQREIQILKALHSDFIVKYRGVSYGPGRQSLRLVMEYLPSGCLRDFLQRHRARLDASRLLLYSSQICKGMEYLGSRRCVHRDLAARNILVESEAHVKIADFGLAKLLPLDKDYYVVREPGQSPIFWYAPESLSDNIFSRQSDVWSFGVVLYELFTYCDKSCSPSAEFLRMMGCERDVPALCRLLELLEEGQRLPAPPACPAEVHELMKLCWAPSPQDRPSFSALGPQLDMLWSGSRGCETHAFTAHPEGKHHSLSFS
Sequence of IRAK4 (Q9NWZ3 whole entry, species assumed): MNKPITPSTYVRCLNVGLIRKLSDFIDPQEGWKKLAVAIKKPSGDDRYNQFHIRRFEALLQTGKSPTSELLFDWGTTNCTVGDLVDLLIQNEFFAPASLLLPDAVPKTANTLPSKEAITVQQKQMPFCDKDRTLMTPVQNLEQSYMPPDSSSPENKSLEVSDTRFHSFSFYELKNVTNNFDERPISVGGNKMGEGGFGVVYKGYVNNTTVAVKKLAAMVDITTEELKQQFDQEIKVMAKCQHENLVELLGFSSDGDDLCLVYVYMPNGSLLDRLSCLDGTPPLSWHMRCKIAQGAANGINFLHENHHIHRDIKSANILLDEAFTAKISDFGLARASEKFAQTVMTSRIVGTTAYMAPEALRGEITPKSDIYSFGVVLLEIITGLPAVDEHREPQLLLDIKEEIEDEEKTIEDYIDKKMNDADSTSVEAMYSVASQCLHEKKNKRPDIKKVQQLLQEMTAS

Usually IC50 stands for the concentration that inhibits the measured activity by half. Regarding `Cc1cc(F)ncc1-c1cc2c(NC(C)C)c(C(=O)NC3CCN(S(C)(=O)=O)CC3)cnn2c1` [Example 86, 6-(6-fluoro-4-methylpyridin-3-yl)-4-(isopropylamino)-N-(1-(methylsulfonyl)piperidin-4-yl)pyrrolo[1,2-b]pyridazine-3-carboxamide], in assay [1], the IC50 is 46 nM. In assay [2], the IC50 was above 50000 nM and the “Ratio of JAK3 IC50 to IRAK4 IC50” value is above 1087.
On the same counts, the results for `CC(C)Nc1c(C(=O)NC[C@@H](F)C(C)(C)O)cnn2cc(-c3cccnc3F)nc12` [Example 103, (R)—N-(2-fluoro-3-hydroxy-3-methylbutyl)-2-(2-fluoropyridin-3-yl)-8-(isopropylamino)imidazo[1,2-b]pyridazine-7-carboxamide] are 45 nM, above 50000 nM and above 1111.
`CC(C)Nc1c(C(=O)NC[C@@H](F)C(C)(C)O)cnn2cc(C#N)cc12` [Example 35, (R)-6-cyano-N-(2-fluoro-3-hydroxy-3-methylbutyl)-4-(isopropylamino)pyrrolo[1,2-b]pyridazine-3-carboxamide]: the IC50 in assay [1] is 190 nM. Moreover, in assay [2], the IC50 is above 50000 nM and the “Ratio of JAK3 IC50 to IRAK4 IC50” value is listed as above 263.
On the same counts, the results for `Cc1cc(F)ncc1-c1cc2c(NC(C)C)c(C(=O)N[C@H]3CC[C@H](C(=O)N4CCOCC4)CC3)cnn2c1` [Example 83, 6-(6-fluoro-4-methylpyridin-3-yl)-4-(isopropylamino)-N-((1r,4r)-4-(morpholine-4-carbonyl)cyclohexyl)pyrrolo[1,2-b]pyridazine-3-carboxamide] are 23 nM, around 49000 nM and around 2130.
`CC(C)(O)[C@H](F)CNC(=O)c1cnn2cc(-c3nccs3)cc2c1NC1CCOCC1` [Example 19, (R)—N-(2-fluoro-3-hydroxy-3-methylbutyl)-4-((tetrahydro-2H-pyran-4-yl)amino)-6-(thiazol-2-yl) pyrrolo[1,2-b]pyridazine-3-carboxamide]: the values for the IC50 in assay [1] and in assay [2] were 15 nM and above 10000 nM, respectively. Besides, the “Ratio of JAK3 IC50 to IRAK4 IC50” value in assay [2] was above 667.
On the same counts, the results for `CC(C)Nc1c(C(=O)NC[C@@H](F)C(C)(C)O)cnn2cc(-c3cccc(CN4CCOCC4)c3)cc12` [Example 14, (R)—N-(2-fluoro-3-hydroxy-3-methylbutyl)-4-(isopropylamino)-6-(3-(morpholinomethyl)phenyl) pyrrolo[1,2-b]pyridazine-3-carboxamide] are 1670 nM, above 10000 nM and above 6.
Turning to `CC(C)(O)[C@H](F)CNC(=O)c1cnn2cc(-c3ccc(C#N)c(F)c3)cc2c1NC1CCOCC1` [Example 12, (R)-6-(4-cyano-3-fluorophenyl)-N-(2-fluoro-3-hydroxy-3-methylbutyl)-4-((tetrahydro-2H-pyran-4-yl)amino)pyrrolo[1,2-b]pyridazine-3-carboxamide], the IC50 in assay [1] was 250 nM. Also, in assay [2], the 50% inhibitory concentration (IC50) is above 50000 nM and the “Ratio of JAK3 IC50 to IRAK4 IC50” value is above 200.
For the compound `CC(C)Nc1c(C(=O)NC[C@@H](F)C(C)(C)O)cnc2cc(-n3ccccc3=O)nn12` [Example 151, (R)—N-(2-fluoro-3-hydroxy-3-methylbutyl)-7-(isopropylamino)-2-(2-oxopyridin-1(2H)-yl)pyrazolo[1,5-a]pyrimidine-6-carboxamide], the IC50 in assay [1] is 580 nM; in assay [2], above 50000 nM. Further, in assay [2], the “Ratio of JAK3 IC50 to IRAK4 IC50” value was above 86.
Turning to `CC(C)Nc1c(C(=O)NC[C@@H](F)C(C)(C)O)cnc2cc(-c3ccc(=O)[nH]c3)nn12` [Example 123, (R)—N-(2-fluoro-3-hydroxy-3-methylbutyl)-7-(isopropylamino)-2-(6-oxo-1,6-dihydropyridin-3-yl)pyrazolo[1,5-a]pyrimidine-6-carboxamide], the figures for the IC50 in assay [1] and in assay [2] were 4.9 nM and above 50000 nM, respectively. The “Ratio of JAK3 IC50 to IRAK4 IC50” value in assay [2] is given as above 10204.

The values above are taken from patent US12570659B2, “Bicyclic heteroaryl compounds useful as IRAK4 inhibitors” (BRISTOL-MYERS SQUIBB COMPANY, priority 2019, dated 2026).
